We go through one compound from BindingDB's records for doi:10.1021/cb300623a (University of Washington, 2013).

Common to all, as to test: Fluorescence Assay
Settings in all cases: pH 7.5; 25 °C

Assay [1] has as its target Tyrosine-protein kinase HCK (Homo sapiens, UniProt P08631). The source says:
(§1) Fluorescence assay used for determination of catch and release efficiency.

The target in assay [2] is Tyrosine-protein kinase Lck (Homo sapiens, UniProt P06239).
Description: as §1

Assay [3] deals with Serine/threonine-protein kinase PAK 4 (Homo sapiens, UniProt O96013).
Description: as §1

The target of assay [4] is T1, Mitogen-activated protein kinase kinase kinase 5 (Homo sapiens, UniProt Q99683).
T1 sequence (Q99683 whole entry): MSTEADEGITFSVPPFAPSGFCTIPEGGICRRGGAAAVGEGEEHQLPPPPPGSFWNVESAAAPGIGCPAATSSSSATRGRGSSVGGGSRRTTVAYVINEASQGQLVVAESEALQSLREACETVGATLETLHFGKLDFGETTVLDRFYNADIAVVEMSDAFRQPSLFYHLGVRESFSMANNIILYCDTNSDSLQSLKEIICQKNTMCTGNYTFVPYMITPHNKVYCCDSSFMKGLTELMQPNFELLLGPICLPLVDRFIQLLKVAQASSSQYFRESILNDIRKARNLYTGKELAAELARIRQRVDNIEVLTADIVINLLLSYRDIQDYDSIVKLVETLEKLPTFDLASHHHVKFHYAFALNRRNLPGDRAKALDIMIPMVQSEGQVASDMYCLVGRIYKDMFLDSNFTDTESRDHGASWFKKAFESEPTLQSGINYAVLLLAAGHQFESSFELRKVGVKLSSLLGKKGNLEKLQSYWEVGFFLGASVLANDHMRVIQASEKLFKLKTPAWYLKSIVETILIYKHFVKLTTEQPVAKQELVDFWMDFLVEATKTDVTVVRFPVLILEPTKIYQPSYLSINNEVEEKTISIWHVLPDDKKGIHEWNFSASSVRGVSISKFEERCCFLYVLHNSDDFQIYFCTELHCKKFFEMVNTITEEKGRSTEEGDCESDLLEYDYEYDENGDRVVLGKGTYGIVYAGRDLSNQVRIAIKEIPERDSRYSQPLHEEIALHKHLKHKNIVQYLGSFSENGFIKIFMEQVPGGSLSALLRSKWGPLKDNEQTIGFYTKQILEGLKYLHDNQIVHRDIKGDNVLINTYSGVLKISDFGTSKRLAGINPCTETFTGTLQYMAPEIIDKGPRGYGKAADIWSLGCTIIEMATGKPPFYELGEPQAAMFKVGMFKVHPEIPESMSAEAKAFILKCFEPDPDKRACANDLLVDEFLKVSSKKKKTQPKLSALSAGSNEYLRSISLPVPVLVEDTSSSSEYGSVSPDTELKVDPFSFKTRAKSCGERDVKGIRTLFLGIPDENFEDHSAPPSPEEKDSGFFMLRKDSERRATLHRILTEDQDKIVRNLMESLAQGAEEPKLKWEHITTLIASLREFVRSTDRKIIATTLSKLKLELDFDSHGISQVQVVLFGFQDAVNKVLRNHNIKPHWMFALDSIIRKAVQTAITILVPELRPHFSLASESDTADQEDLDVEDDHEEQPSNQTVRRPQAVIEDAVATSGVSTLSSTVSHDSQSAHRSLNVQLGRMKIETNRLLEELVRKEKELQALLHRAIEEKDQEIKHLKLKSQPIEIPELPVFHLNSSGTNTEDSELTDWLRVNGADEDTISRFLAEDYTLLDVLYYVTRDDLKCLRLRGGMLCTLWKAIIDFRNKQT
Description: as §1

Another assay deals with T2, Ephrin type-A receptor 3 (Homo sapiens, UniProt P29320).
T2 sequence (P29320 whole entry): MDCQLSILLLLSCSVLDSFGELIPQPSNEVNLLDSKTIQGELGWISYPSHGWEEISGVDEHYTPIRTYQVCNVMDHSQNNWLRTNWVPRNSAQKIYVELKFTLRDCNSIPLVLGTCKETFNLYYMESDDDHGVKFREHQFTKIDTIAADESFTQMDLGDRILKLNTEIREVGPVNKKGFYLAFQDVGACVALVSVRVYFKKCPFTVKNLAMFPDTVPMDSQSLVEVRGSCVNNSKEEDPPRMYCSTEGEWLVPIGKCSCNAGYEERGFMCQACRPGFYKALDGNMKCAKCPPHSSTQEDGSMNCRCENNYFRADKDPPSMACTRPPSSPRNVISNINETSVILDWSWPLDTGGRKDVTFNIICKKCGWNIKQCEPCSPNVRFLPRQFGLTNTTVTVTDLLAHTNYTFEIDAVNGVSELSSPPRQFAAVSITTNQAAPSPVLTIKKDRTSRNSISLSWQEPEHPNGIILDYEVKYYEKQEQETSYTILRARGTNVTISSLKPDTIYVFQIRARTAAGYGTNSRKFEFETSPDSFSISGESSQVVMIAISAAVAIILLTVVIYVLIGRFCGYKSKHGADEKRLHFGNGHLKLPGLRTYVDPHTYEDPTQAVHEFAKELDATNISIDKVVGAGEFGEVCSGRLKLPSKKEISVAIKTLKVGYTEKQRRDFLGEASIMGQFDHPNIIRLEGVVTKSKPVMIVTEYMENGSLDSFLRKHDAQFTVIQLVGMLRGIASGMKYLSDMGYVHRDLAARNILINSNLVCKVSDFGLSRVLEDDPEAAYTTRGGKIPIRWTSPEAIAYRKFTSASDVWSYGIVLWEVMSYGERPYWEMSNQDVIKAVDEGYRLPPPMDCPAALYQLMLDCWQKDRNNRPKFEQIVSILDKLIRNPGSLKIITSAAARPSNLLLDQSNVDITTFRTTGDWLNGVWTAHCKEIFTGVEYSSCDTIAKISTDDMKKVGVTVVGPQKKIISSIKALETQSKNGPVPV
Description: as §1

Assay [5] has as its target Serine/threonine-protein kinase 10 (Homo sapiens, UniProt O94804).
Description: as §1

Assay [6] deals with Serine/threonine-protein kinase PAK 5 (Homo sapiens, UniProt Q9P286).
Description: as §1

Assay [7] concerns the target Tyrosine-protein kinase ABL1 (Homo sapiens, UniProt P00519).
Description: as §1

The target of assay [8] is Tyrosine-protein kinase CSK (Homo sapiens, UniProt P41240).
Description: as §1

The target in assay [9] is Proto-oncogene tyrosine-protein kinase Src (Homo sapiens, UniProt P12931).
Description: as §1

Assay [10] deals with T3, Interleukin-1 receptor-associated kinase 4 (Homo sapiens, UniProt Q9NWZ3).
T3 sequence (Q9NWZ3 whole entry): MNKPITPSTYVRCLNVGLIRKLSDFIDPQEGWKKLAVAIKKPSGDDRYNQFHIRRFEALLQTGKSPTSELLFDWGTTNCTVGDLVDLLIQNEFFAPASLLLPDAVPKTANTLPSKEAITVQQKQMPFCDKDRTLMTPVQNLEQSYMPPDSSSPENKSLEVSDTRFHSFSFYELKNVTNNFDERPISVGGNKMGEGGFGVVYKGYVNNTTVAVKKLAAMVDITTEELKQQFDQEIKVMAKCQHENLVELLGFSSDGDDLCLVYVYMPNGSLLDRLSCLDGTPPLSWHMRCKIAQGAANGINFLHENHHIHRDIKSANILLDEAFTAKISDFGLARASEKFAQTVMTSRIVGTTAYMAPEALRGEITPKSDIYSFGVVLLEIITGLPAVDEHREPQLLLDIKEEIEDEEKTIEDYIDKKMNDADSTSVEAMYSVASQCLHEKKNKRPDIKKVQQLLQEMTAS
Description: as §1

The structures appear in SMILES notation.

Serine/threonine-protein kinase 10, sequence (O94804 whole entry): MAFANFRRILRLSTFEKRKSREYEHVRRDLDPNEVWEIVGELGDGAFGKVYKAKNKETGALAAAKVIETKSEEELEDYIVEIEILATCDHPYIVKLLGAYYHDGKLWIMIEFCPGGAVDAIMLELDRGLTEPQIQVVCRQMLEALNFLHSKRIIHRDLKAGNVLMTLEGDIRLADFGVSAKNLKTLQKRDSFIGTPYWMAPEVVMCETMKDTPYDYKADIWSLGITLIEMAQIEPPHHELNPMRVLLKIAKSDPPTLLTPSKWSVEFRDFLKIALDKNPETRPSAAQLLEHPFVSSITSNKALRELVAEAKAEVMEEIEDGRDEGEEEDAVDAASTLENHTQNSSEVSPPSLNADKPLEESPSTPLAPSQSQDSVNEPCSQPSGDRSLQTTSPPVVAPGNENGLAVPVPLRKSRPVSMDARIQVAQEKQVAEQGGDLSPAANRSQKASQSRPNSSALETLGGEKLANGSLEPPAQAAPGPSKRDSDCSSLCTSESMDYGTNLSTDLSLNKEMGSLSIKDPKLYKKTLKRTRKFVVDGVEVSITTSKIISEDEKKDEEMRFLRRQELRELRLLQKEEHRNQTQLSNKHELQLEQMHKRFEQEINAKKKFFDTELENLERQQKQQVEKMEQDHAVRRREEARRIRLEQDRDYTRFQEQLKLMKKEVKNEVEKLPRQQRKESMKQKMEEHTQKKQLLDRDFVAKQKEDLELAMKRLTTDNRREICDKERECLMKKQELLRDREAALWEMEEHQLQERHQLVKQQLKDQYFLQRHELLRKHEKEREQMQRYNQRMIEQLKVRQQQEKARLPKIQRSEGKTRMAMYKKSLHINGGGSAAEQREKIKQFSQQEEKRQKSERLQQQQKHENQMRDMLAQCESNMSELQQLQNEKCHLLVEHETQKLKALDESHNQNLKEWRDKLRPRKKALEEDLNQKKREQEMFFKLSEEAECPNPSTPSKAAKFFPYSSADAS
Tyrosine-protein kinase ABL1, sequence (P00519 whole entry): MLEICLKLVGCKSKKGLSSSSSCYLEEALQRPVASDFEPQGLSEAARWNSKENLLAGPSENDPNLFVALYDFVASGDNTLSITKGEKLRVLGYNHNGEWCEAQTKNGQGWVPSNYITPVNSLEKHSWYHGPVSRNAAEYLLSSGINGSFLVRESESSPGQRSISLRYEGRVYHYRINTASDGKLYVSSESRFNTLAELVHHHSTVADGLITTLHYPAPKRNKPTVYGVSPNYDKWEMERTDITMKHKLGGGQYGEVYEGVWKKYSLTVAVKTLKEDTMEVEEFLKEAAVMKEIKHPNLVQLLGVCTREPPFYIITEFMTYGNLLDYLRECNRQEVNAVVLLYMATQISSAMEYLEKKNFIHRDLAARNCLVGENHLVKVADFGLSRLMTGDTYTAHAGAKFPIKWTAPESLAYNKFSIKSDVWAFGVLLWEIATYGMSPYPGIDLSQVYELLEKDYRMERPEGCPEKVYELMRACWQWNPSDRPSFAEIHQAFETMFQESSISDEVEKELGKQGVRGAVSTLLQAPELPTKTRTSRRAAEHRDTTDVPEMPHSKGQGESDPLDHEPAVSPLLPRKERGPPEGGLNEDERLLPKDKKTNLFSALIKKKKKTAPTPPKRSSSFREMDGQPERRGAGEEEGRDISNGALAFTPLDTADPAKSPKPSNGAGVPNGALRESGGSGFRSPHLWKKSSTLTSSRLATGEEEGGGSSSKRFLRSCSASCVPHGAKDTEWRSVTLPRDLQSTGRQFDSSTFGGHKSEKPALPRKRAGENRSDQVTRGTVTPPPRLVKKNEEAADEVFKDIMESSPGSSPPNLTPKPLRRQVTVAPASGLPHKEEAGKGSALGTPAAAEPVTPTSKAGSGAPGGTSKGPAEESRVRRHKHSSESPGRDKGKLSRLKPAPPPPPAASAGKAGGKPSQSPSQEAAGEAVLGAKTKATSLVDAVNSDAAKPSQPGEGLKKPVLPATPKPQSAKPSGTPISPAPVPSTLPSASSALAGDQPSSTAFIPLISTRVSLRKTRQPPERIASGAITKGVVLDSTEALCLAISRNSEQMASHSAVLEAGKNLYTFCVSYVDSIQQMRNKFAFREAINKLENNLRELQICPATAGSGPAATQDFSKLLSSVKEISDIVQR
Tyrosine-protein kinase HCK, sequence (P08631 whole entry): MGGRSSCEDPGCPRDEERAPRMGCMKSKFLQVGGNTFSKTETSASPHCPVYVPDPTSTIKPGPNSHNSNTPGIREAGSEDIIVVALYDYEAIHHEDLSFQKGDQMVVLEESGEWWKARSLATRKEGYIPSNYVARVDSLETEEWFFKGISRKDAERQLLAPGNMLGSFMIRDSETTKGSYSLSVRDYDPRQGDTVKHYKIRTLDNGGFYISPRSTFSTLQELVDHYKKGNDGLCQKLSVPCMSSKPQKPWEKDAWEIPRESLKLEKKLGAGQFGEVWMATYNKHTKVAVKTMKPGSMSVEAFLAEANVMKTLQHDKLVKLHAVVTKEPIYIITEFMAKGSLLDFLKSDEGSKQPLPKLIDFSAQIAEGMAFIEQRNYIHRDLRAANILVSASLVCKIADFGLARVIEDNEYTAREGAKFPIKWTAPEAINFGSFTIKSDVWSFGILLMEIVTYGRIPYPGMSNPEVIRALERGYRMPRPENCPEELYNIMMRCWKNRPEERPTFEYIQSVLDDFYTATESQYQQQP
Tyrosine-protein kinase CSK, sequence (P41240 whole entry): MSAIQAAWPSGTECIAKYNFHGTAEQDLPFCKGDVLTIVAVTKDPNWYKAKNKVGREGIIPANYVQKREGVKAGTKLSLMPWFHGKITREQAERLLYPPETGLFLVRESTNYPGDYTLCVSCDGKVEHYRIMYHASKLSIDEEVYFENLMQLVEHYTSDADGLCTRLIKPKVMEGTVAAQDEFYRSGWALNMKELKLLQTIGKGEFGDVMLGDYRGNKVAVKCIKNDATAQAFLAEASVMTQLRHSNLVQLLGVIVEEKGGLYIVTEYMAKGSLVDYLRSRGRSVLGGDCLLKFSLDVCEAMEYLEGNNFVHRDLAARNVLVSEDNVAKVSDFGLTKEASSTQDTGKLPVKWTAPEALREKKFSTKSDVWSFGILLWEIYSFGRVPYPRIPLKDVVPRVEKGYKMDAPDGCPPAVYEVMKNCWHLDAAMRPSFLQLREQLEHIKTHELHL
Tyrosine-protein kinase Lck, sequence (P06239 whole entry): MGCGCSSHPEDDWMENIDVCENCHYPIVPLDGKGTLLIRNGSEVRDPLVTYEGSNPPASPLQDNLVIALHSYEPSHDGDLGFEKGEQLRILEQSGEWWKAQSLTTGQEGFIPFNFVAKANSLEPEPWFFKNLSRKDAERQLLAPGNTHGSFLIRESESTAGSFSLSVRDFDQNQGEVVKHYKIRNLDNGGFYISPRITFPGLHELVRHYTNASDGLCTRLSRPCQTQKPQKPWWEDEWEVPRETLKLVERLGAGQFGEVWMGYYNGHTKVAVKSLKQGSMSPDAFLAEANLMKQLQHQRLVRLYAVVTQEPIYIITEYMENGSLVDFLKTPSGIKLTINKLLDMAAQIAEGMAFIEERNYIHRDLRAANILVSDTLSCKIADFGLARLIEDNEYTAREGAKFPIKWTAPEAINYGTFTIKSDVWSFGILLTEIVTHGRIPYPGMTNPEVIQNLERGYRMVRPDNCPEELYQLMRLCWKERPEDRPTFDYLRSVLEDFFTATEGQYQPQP
Serine/threonine-protein kinase PAK 4, sequence (O96013 whole entry): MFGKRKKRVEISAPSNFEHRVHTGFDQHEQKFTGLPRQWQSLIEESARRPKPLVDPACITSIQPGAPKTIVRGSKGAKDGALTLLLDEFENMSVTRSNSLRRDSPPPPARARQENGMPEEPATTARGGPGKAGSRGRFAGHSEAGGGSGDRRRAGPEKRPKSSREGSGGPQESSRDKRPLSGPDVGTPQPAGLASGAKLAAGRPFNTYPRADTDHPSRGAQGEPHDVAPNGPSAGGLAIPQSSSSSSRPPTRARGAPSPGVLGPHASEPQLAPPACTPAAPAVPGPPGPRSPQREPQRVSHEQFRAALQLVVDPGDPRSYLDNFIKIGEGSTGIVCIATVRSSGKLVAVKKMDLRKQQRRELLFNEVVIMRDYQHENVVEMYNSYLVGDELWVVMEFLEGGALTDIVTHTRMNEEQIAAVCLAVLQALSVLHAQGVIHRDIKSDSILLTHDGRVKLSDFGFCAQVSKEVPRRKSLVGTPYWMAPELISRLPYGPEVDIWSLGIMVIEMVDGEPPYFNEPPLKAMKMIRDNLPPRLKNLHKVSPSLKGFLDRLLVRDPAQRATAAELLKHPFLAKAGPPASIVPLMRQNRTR
Proto-oncogene tyrosine-protein kinase Src, sequence (P12931 2-536 limits assumed): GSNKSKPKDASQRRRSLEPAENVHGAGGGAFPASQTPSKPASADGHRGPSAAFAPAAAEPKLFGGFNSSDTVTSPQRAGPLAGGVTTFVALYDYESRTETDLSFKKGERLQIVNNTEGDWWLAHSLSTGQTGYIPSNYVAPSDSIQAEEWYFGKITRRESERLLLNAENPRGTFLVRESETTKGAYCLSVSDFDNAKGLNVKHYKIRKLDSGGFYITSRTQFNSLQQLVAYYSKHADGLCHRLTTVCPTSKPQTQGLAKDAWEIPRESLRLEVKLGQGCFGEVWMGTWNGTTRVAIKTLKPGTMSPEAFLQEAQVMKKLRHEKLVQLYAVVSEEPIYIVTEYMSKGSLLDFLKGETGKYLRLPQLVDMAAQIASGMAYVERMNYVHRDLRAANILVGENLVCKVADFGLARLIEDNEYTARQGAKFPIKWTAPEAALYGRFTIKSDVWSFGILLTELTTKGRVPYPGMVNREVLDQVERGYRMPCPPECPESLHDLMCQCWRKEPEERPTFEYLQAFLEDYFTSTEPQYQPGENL

In general, IC50 refers to the concentration at which inhibition is half-maximal. Consider `Cc1ccc(NC(=O)c2cccc(C(F)(F)F)c2)cc1-c1ccc2nc(Nc3ccc(OCCN)cc3)ncc2c1` [Kinase inhibitor, 5], for which the half-maximal inhibitory concentration (IC50) in assay [1] is less than 0.5 nM; in assay [2] it was less than 2 nM; in assay [3], greater than 10000 nM; in assay [4], greater than 10000 nM; on Ephrin type-A receptor 3 it was less than 10 nM; in assay [5] it was less than 10 nM. Further, the 50% inhibitory concentration (IC50) was greater than 10000 nM in assay [6]; less than 2 nM in assay [7]; 8.4 nM in [8]; less than 2 nM in assay [9]; greater than 10000 nM in assay [10].
